Measured values published in article PMC10870435, “A novel complement C3 inhibitor CP40-KK protects against experimental pulmonary arterial hypertension via an inflammasome NLRP3 associated pathway” (Journal of Translational Medicine, 2024).
Bridge positions count the residues as written; N and C are the ends. Square brackets hold non-standard residues; d marks the D form. Peptide text beside a SMILES is read from it. Trp(1-Me) = Cn1cc(C[C@H](N)C(=O)O)c2ccccc21; NMeI = CC[C@H](C)[C@H](NC)C(=O)O; Sar = CNCC(=O)O

Legend:
[1] = test system: rat complement C3 function; assay: CH50 test (Mayer method) in vitro, peptide added to rat plasma; format: biochemical; conditions: 0, 2.5, 5.0, 10, 20, 40 µM added to mixed wild-type SD rat plasma; sensitized sheep erythrocytes
Procedure: The total functional complement was determined with a CH50 assay based on the modified method of Mayer. The 50% haemolytic standard tube was made by adding 0.3 ml 2% sheep erythrocytes (Chundubio, Wuhan, China) to 1.2 ml distilled water and then diluting with equivoluminal veronal buffer saline (Leagene, Beijing, China). The sheep erythrocytes were sensitized by adding a designated volume of a predetermined concentration of rabbit haemolytic serum (Solarbio, Beijing, China) in veronal buffer saline. The plasma of rats was first prediluted in veronal buffer saline at 1/5, 1/10, and 1/20. […] The OD values of supernatant liquid in the ten tubes were measured at 541 nm and compared with that of the 50% haemolytic standard tube to get the most similar value. The total haemolytic complement (CH50) = dilution ratio / the quantity of plasma needed to induce 50% lysis of sheep erythrocytes.
Plasma samples for biological assays from rats were centrifuged and stored at -80°C until used, and the total functional complement was determined with a CH50 assay based on the modified method of Mayer. This assay involves determining the quantity of plasma needed to induce 50% lysis of sheep erythrocytes sensitized with antibody anti-sheep erythrocytes. […] The total hemolytic complement (CH50) = dilution ratio / the quantity of plasma needed to induce 50% lysis of sheep erythrocytes^5-7.

[2] = test system: MCT-induced rat PAH model; assay: MCT-induced rat PAH model: hemodynamics, RV hypertrophy, vessel morphology; format: in vivo
Procedure: (§1) In the current study, two animal experiments were conducted successively. 30 rats were randomly divided into two groups (control group and MCT group, n = 15 per group) in the first experiment. MCT group rats received a single intraperitoneally injection of MCT (40 mg/kg) on day 1 to induce PAH while control group rats received an equivoluminal saline injection intraperitoneally. For the second animal experiment, the rats were assigned into four groups (control group, MCT group, CP40-KK group, and MCT + CP40-KK group, n = 15 per group). The control group was given the same volume of saline subcutaneously while the CP40-KK group rats only received CP40-KK (2 mg/kg) by subcutaneous injection from day 15 to day 28 continuously. The rats in the MCT group and MCT + CP40-KK group were received a single intraperitoneally injection of MCT (40 mg/kg) on day 1 and subcutaneously injected with either an equal volume of saline or CP40-KK (2 mg/kg) at day 15 to day 28 continuously. The dose selection of MCT and CP40-KK in our study was established based on previous studies.
Four weeks after the MCT injection, the experimental rats were weighed and anesthetized by intraperitoneal injecting pentobarbital sodium (40 mg/kg). After being anesthetized, rats were fixed in the supine position. A 3F polyethylene catheter filling with heparin was introduced into the right ventricle (RV) through the right jugular vein and the right atrium. Right ventricle systolic pressure (RVSP) was assessed by a pressure transducer and PowerLab system (AD Instruments, Australia). Pressure recordings were measured over a 2 min period and analyzed with Powerlab Pro Software (AD Instruments, Australia). After the hemodynamic study, the rats were euthanized by an overdose of anesthesia, and their lungs and hearts were dissected for further evaluation. The dry weights of the RV and left ventricle (LV) + septum were measured to calculate the RV/(LV + S) ratio and the RV / body weight (RV/BW). The left lung was fixed in 4% paraformaldehyde, and the right lung was snap-frozen in liquid nitrogen and stored at − 80 °C for further analysis.
Fixed lung samples were further fixed in 4% buffered paraformaldehyde for 24 h, embedded in paraffin, and processed for sectioning at 5 μm thick. Hematoxylin and eosin (H&E) staining were performed on paraffin-fixed lung tissue slides. The percent medial wall thickness (WT%) and percent medial wall area (WA%) were used to assess the extent of pulmonary vascular remodeling. WT% = (external diameter − internal diameter)/(external diameter) × 100%; WA% = (external area − internal area)/external area × 100%. All data were obtained and analyzed in a blinded manner.

[3] = test system: C3 activation (C3a); assay: Plasma C3a western blot in PAH rats; format: in vivo; conditions: western blot of rat plasma; n = 6 per group
Procedure: as §1, with “The rats in the MCT group and MCT + CP40-KK group were received a single intraperitoneally injection of MCT (40 mg/kg) on day 1 and subcutaneously injected with either an equal volume of saline or CP40-KK (2 mg/kg) at day 15 to day 28 continuously. The dose selection of MCT and CP40-KK in our study was established based on previous studies.” left out
[…] Protein concentration was quantified using a BCA reagent. […] To compare and quantify levels of proteins, the density of each band was measured using Image J software. Equal loading for total cell or tissue lysates was determined by β-Actin western blot.
[…] Protein concentration was quantified using a BCA reagent. […] To compare and quantify levels of proteins, the density of each band was measured using Image J software. Equal loading for total cell or tissue lysates was determined by β-Actin western blot^3,4.

[4] = MCT 40 mg/kg i.p. day 1, 2 mg/kg/day s.c. day 15-28, vs MCT group, n = 6 per group

SMILES: CC[C@H](C)[C@H](NC(=O)[C@H](N)Cc1ccc(O)cc1)C(=O)N[C@H]1CSSC[C@@H](C(=O)N(C)[C@H](C(=O)N[C@@H](CCCCN)C(=O)N[C@@H](CCCCN)C(N)=O)[C@@H](C)CC)NC(=O)[C@H](CCCNC(=N)N)NC(=O)[C@H](Cc2c[nH]cn2)NC(=O)CN(C)C(=O)[C@H](Cc2c[nH]c3ccccc23)NC(=O)[C@H](CC(=O)O)NC(=O)[C@H](CCC(N)=O)NC(=O)[C@H](Cc2cn(C)c3ccccc23)NC(=O)[C@H](C(C)C)NC1=O [CP40-KK] (H-[dY]ICV[Trp(1-Me)]QDW[Sar]HRC[NMeI]KK-NH2; disulfide 3-12 (inferred))
- CH50 value (rat C3 function) in vitro [1]: blocked rat C3 function in a dosage-dependent manner
- RV / (LV + S) ratio [2, 4]: significantly ameliorate
- RV / BW ratio [2, 4]: significantly ameliorate
- RVSP [2, 4]: significantly ameliorate
- pulmonary wall thickness index WA% [2, 4]: significantly ameliorate
- pulmonary wall thickness index WT% [2, 4]: significantly ameliorate
- PAH-related indices, CP40-KK only group vs saline only group ([2]; rats without MCT, 2 mg/kg s.c. day 15-28): no significant effect
- plasma C3a (C3 activation ex vivo) [3]: significantly inhibit the C3 activation
